Test results from patent US20230085307A1, “PYRIDAZINONE COMPOUND AND HERBICIDE” (NISSAN CHEMICAL CORPORATION, priority 2019, published 2023).

Key:
[1] = system: blackgrass; assay: Test Example 4: herbicidal effect by soil treatment (Table 19, symbol J); type: in vivo, blackgrass (Alopecurus myosuroides); conditions: amount of applied herbicide 320 g/ha
How it was run: (§1)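 Seeds were sown in sterilized diluvial soil and covered with about 1.5 cm of soil. An emulsion formulation diluted with water to a predetermined herbicide amount was sprayed evenly onto the soil surface. Plants grew in a greenhouse at 25° C. to 30° C., and the effect was scored three weeks after application using criteria from an earlier test.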

[2] = system: wild oat; assay: Test Example 4: herbicidal effect by soil treatment (Table 19, symbol I); type: in vivo, wild oat (Avena fatua); conditions: amount of applied herbicide 320 g/ha
How it was run: as §1

[3] = system: oval-leafed pondweed; assay: Test Example 2: herbicidal activity, application during weed generation under submerged conditions (Table 17, symbol C); type: in vivo, oval-leafed pondweed (Monochoria vaginalis); conditions: AAH 320 g/ha; application during weed generation, submerged conditions
How it was run: (§2)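 Effect on each weed is rated three weeks post-treatment, using the same scoring criteria as the preceding test. Plants grow from mixed-sown seed in flooded alluvial soil (4 cm water) at 25° C. to 30° C., and are treated at one to two leaves with diluted emulsion dropped onto the water.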

[4] = system: Italian ryegrass; assay: Test Example 5: herbicidal effect by foliage application, plastic box (Table 20, symbol K); type: in vivo, Italian ryegrass (Lolium multiflorum); conditions: foliage application, 320 g/ha, three weeks after application
How it was run: (§3)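 Plants sown in sterilized diluvial soil and grown 14 days in a greenhouse at 25° C to 30° C, then sprayed on the foliage with the compound's emulsion diluted in water to a predetermined herbicide amount. Injury to weeds and crops scored three weeks after application on a visual rating scale.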

[5] = system: velvetleaf; assay: Test Example 5: herbicidal effect by foliage application, plastic box (Table 20, symbol M); type: in vivo, velvetleaf (Abutilon theophrasti); conditions: foliage application, 320 g/ha, three weeks after application
How it was run: as §3

[6] = system: late watergrass; assay: Test Example 1: herbicidal activity, application before weed generation under submerged conditions (Table 16, symbol A); type: in vivo, late watergrass (Echinochloa oryzicola); conditions: amount of applied herbicide 320 g/ha
How it was run: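 Submerged Wagner pots (alluvial soil, 4 cm water) sown with weed seeds and planted with 2.5-leaf rice seedlings; emulsifiable concentrate diluted in water applied to water surface on sowing day. Held in greenhouse at 25-30 °C; injury scored 0-5 by herbicidal rate after three weeks.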

[7] = system: false cleavers; assay: Test Example 5: herbicidal effect by foliage application, plastic box (Table 20, symbol Q); type: in vivo, false cleavers (Galium spurium); conditions: foliage application, 320 g/ha, three weeks after application
How it was run: as §3

[8] = system: blackgrass; assay: Test Example 5: herbicidal effect by foliage application, plastic box (Table 20, symbol J); type: in vivo, blackgrass (Alopecurus myosuroides); conditions: foliage application, 320 g/ha, three weeks after application
How it was run: as §3

[9] = system: late watergrass; assay: Test Example 2: herbicidal activity, application during weed generation under submerged conditions (Table 17, symbol A); type: in vivo, late watergrass (Echinochloa oryzicola); conditions: AAH 320 g/ha; application during weed generation, submerged conditions
How it was run: as §2

[10] = system: false cleavers; assay: Test Example 4: herbicidal effect by soil treatment (Table 19, symbol Q); type: in vivo, false cleavers (Galium spurium); conditions: amount of applied herbicide 320 g/ha
How it was run: as §1

[11] = system: Italian ryegrass; assay: Test Example 4: herbicidal effect by soil treatment (Table 19, symbol K); type: in vivo, Italian ryegrass (Lolium multiflorum); conditions: amount of applied herbicide 320 g/ha
How it was run: as §1

[12] = system: persian speedwell; assay: Test Example 4: herbicidal effect by soil treatment (Table 19, symbol R); type: in vivo, Persian speedwell (Veronica persica); conditions: amount of applied herbicide 320 g/ha
How it was run: as §1

[13] = system: lambsquarters; assay: Test Example 4: herbicidal effect by soil treatment (Table 19, symbol O); type: in vivo, lambsquarters (Chenopodium album); conditions: amount of applied herbicide 320 g/ha
How it was run: as §1

[14] = system: redroot pigweed; assay: Test Example 5: herbicidal effect by foliage application, plastic box (Table 20, symbol N); type: in vivo, redroot pigweed (Amaranthus retroflexus); conditions: foliage application, 320 g/ha, three weeks after application
How it was run: as §3

[15] = system: chickweed; assay: Test Example 4: herbicidal effect by soil treatment (Table 19, symbol P); type: in vivo, common chickweed (Stellaria media); conditions: amount of applied herbicide 320 g/ha
How it was run: as §1

[16] = system: chickweed; assay: Test Example 5: herbicidal effect by foliage application, plastic box (Table 20, symbol P); type: in vivo, common chickweed (Stellaria media); conditions: foliage application, 320 g/ha, three weeks after application
How it was run: as §3

[17] = system: Japanese bulrush; assay: Test Example 2: herbicidal activity, application during weed generation under submerged conditions (Table 17, symbol B); type: in vivo, Japanese bulrush (Schoenoplectus juncoides); conditions: AAH 320 g/ha; application during weed generation, submerged conditions
How it was run: as §2

[18] = system: southern crabgrass; assay: Test Example 5: herbicidal effect by foliage application, plastic box (Table 20, symbol F); type: in vivo, southern crabgrass (Digitaria ciliaris); conditions: foliage application, 320 g/ha, three weeks after application
How it was run: as §3

| Structure (SMILES) | J: blackgrass, herbicidal effect grade [1] | I: wild oat, herbicidal effect grade [2] | herbicidal effect rating, C: oval-leafed pondweed [3] | K: Italian ryegrass, herbicidal effect grade [4] | M: velvetleaf, herbicidal effect grade [5] | Herbicidal effect, A: late watergrass [6] | Q: false cleavers, herbicidal effect grade [7] | J: blackgrass, herbicidal effect grade [8] | herbicidal effect rating, A: late watergrass [9] | Q: false cleavers, herbicidal effect grade [10] | K: Italian ryegrass, herbicidal effect grade [11] | R: persian speedwell, herbicidal effect grade [12] | O: lambsquarters, herbicidal effect grade [13] | N: redroot pigweed, herbicidal effect grade [14] | P: chickweed, herbicidal effect grade [15] | P: chickweed, herbicidal effect grade [16] | herbicidal effect rating, B: Japanese bulrush [17] | F: southern crabgrass, herbicidal effect grade [18] |
| --- | --- | --- | --- | --- | --- | --- | --- | --- | --- | --- | --- | --- | --- | --- | --- | --- | --- | --- |
| CCCC(=O)Oc1c(C)nn(C)c(=O)c1-c1c(-c2ccccc2)sc2cc(OC)ccc12 [3-062] | 0 (Herbicidal rate of 5% or less (almost no effect)) | 0 (Herbicidal rate of 5% or less (almost no effect)) | 3 (Herbicidal rate of 40% or more and less than 70%) | 2 (Herbicidal rate of 20% or more and less than 40%) | 3 (Herbicidal rate of 40% or more and less than 70%) | 3 (Herbicidal rate of 40% or more and less than 70%) | 4 (Herbicidal rate of 70% or more and less than 90%) | 0 (Herbicidal rate of 5% or less (almost no effect)) | 0 (Herbicidal rate of 5% or less (almost no effect)) | 2 (Herbicidal rate of 20% or more and less than 40%) | 0 (Herbicidal rate of 5% or less (almost no effect)) | 4 (Herbicidal rate of 70% or more and less than 90%) | 0 (Herbicidal rate of 5% or less (almost no effect)) | 2 (Herbicidal rate of 20% or more and less than 40%) | 4 (Herbicidal rate of 70% or more and less than 90%) | 5 (Herbicidal rate of 90% or more (almost completely withered)) | 3 (Herbicidal rate of 40% or more and less than 70%) | 0 (Herbicidal rate of 5% or less (almost no effect)) |
| CCCC(=O)Oc1c(C)nn(C)c(=O)c1-c1c(-c2ccc(OC)cc2)sc2cc(OC)ccc12 [3-069] | 0 (Herbicidal rate of 5% or less (almost no effect)) | 0 (Herbicidal rate of 5% or less (almost no effect)) | 4 (Herbicidal rate of 70% or more and less than 90%) | 3 (Herbicidal rate of 40% or more and less than 70%) | 5 (Herbicidal rate of 90% or more (almost completely withered)) | 0 (Herbicidal rate of 5% or less (almost no effect)) | 4 (Herbicidal rate of 70% or more and less than 90%) | 0 (Herbicidal rate of 5% or less (almost no effect)) | 0 (Herbicidal rate of 5% or less (almost no effect)) | 0 (Herbicidal rate of 5% or less (almost no effect)) | 0 (Herbicidal rate of 5% or less (almost no effect)) | 4 (Herbicidal rate of 70% or more and less than 90%) | 0 (Herbicidal rate of 5% or less (almost no effect)) | 5 (Herbicidal rate of 90% or more (almost completely withered)) | 3 (Herbicidal rate of 40% or more and less than 70%) | 5 (Herbicidal rate of 90% or more (almost completely withered)) | 3 (Herbicidal rate of 40% or more and less than 70%) | 0 (Herbicidal rate of 5% or less (almost no effect)) |
| CCOc1ccc(-c2sc3cc(OC)ccc3c2-c2c(O)c(C)nn(C)c2=O)cc1 [3-072] | 0 (Herbicidal rate of 5% or less (almost no effect)) | 0 (Herbicidal rate of 5% or less (almost no effect)) | 3 (Herbicidal rate of 40% or more and less than 70%) | 4 (Herbicidal rate of 70% or more and less than 90%) | 3 (Herbicidal rate of 40% or more and less than 70%) | 1 (Herbicidal rate of 5% or more and less than 20%) | 5 (Herbicidal rate of 90% or more (almost completely withered)) | 0 (Herbicidal rate of 5% or less (almost no effect)) | 3 (Herbicidal rate of 40% or more and less than 70%) | 1 (Herbicidal rate of 5% or more and less than 20%) | 0 (Herbicidal rate of 5% or less (almost no effect)) | 5 (Herbicidal rate of 90% or more (almost completely withered)) | 2 (Herbicidal rate of 20% or more and less than 40%) | 5 (Herbicidal rate of 90% or more (almost completely withered)) | 5 (Herbicidal rate of 90% or more (almost completely withered)) | 5 (Herbicidal rate of 90% or more (almost completely withered)) | 2 (Herbicidal rate of 20% or more and less than 40%) | 0 (Herbicidal rate of 5% or less (almost no effect)) |
| COc1ccc2c(-c3c(O)c(C)nn(C)c3=O)c(-c3ccc(F)cc3OC)sc2c1 [3-076] | 5 (Herbicidal rate of 90% or more (almost completely withered)) | 3 (Herbicidal rate of 40% or more and less than 70%) | 4 (Herbicidal rate of 70% or more and less than 90%) | 4 (Herbicidal rate of 70% or more and less than 90%) | 3 (Herbicidal rate of 40% or more and less than 70%) | 4 (Herbicidal rate of 70% or more and less than 90%) | 4 (Herbicidal rate of 70% or more and less than 90%) | 4 (Herbicidal rate of 70% or more and less than 90%) | 3 (Herbicidal rate of 40% or more and less than 70%) | 4 (Herbicidal rate of 70% or more and less than 90%) | 4 (Herbicidal rate of 70% or more and less than 90%) | 5 (Herbicidal rate of 90% or more (almost completely withered)) | 4 (Herbicidal rate of 70% or more and less than 90%) | 5 (Herbicidal rate of 90% or more (almost completely withered)) | 2 (Herbicidal rate of 20% or more and less than 40%) | 5 (Herbicidal rate of 90% or more (almost completely withered)) | 4 (Herbicidal rate of 70% or more and less than 90%) | 3 (Herbicidal rate of 40% or more and less than 70%) |
